US20050148069A1, “IGF-1 instructs multipotent adult CNS neural stem cells to an oligodendroglial lineage” (priority 2003, published 2005)

How the values were obtained:
Type in all cases: cell-based, rat
Smad7 = assay: quantitative real time PCR, Smad7 expression; conditions: 500 ng/ml IGF-I, up to 48 hours, normalized to GAPDH
Text: (§1) If IGF-I induction of oligodendrocyte differentiation involves the inhibition of BMP signaling, a change in the expression of BMP antagonists after IGF-I treatment might be observed. In addition to extracellular antagonists of BMP signaling, such as Noggin, intracellular proteins that can interfere with downstream BMP receptor signaling, called inhibitory Smads (Smad6, 7), have also been identified (Christian and Nakayama, 1999). Therefore, we performed Q-PCR analyses of cultures treated with IGF-I after various time points (up to 48 hours) and examined the relative fold change (normalized to an internal control; see Methods) of Noggin, Smad6, 7 (FIG. 6, A-C). Expression of Noggin, Smad6, 7 increased by at least 6-, 5-, and 2-fold, respectively, after IGF-I treatment (p<0.05, t-test). There may be an unexplained downregulation of Smad6 at the 48-h time point.
(§2) Total RNA was isolated from cell cultures using RNeasy columns (Qiagen). For real-time quantitative PCR, reactions were carried out essentially as described (Zhao et al., 2001). The relative amount of the tested message was normalized to the level of the internal control message, GAPDH. […] Primer sequences are available upon request.

Noggin = assay: quantitative real time PCR, Noggin expression; conditions: 500 ng/ml IGF-I, up to 48 hours, normalized to GAPDH
Text: as §1, §2

[1] = system: adult hippocampus-derived neural progenitor cells; assay: in vitro differentiation analysis of neural progenitor cells (immunocytochemistry for lineage markers)
Procedure: The neural progenitor cells isolated from the hippocampus of female Fischer 344 used in this study have been characterized previously (Gage et al., 1995; Palmer et al., 1997). The whole brain-derived neural stem cells from PIO ICR mice were isolated and cultured according to the methods as described, with slight modifications. Cells were cultured as previously described (Gage et al., 1995; Ray et al., 1993). Cells between passages 10 and 20 were used for in vitro differentiation analyses. To induce differentiation, cells were plated into 4-well chamber slides at a density of 55,000-75,000 cells per well and were allowed to proliferate in N2-supplemented (Invitrogen) DMEM:F12 (Omega Scientific) medium containing 20 ng/ml FGF-2 (PeproTech, Inc.) for 24 hours. FGF-2 was then withdrawn and cells were subsequently treated with differentiation media. […] For IGF-induction experiments, cells were trypsinized, washed with 1× PBS, and plated into insulin-free N2 medium. […] In some cultures, BrdU (2.5 μM, Sigma) was added to label dividing cells, and Q-VD-OPh (2 μM, Enzyme Systems Products) was added to prevent apoptosis.
Cells were fixed with 4% paraformaldehyde, followed by immunocytochemical staining as described (Palmer et al., 1999). Labeled cells were visualized using a Nikon E800 upright microscope or a Nikon E600 inverted microscope (Nikon Inc.) and a Spot RT CCD camera (Diagnostic Instruments Inc.). 4′,6-diamidino-2-phenylindole (DAPI) was used to identify individual cells. Quantification of cell phenotypes was with StereoInvestigator (MicroBrightfield Inc.); for each marker, 500-1000 cells were sampled systematically from standardized fields at 40×magnification. For quantification of live/dead cells, images were taken of cultures live-stained with propidum iodide (1 μg/ml; Molecular Probes) and Hoescht 33342 (1 μg/ml; Sigma) at 10×magnification, and cells were counted using Image-Pro (Media Cybernetics). The following primary antibodies were used: rabbit anti-Tuj1 (1:7500;Covance), mouse anti-RIP (1:25-1:75; Hybridoma Bank); guinea pig anti-GFAP (1:500-1:2500; Advanced Immunochemical, Inc.); rabbit anti-MBP (1:500; Chemicon International Inc.), rat anti-BrdU (1:400; Accurate). Secondary antibodies were all from Jackson ImmunoResearch and used at 1:250 dilution. The detection of BrdU in cultured cells required treatment in 2 N HCL at 37° C. for 30 min (Palmer et al., 1999). All experiments were independently replicated at least 3 times.

[2] = system: adult hippocampus-derived neural progenitor cells; assay: proliferation by BrdU incorporation; conditions: 500 ng/ml IGF-I
Procedure: We next determined whether proliferation of progenitors might contribute to the observed increase in oligodendrocyte differentiation. Bromodeoxyuridine (BrdU) (2.5 μM) was added to parallel cultures for 12 hours at times 0-, 12-, 24-, and 36-h after plating, followed by fixation and quantification of total cell numbers and BrdU+ cells. We counted the progenitor cells (evidenced by a lack of RIP staining) that were labeled with BrdU at each time point. For cells grown in the absence of IGF-I, we observed a progressive decrease in the percentage of cells that were proliferating (BrdU+) during the 48-h experiments (FIG. 3B). […] This initial decrease in proliferation is most likely due to FGF-2 mitogen withdrawal. […]
Cells were fixed with 4% paraformaldehyde, followed by immunocytochemical staining as described (Palmer et al., 1999). […] Quantification of cell phenotypes was with StereoInvestigator (MicroBrightfield Inc.); for each marker, 500-1000 cells were sampled systematically from standardized fields at 40×magnification. For quantification of live/dead cells, images were taken of cultures live-stained with propidum iodide (1 μg/ml; Molecular Probes) and Hoescht 33342 (1 μg/ml; Sigma) at 10×magnification, and cells were counted using Image-Pro (Media Cybernetics). […]

In the case of “IGF-I: human recombinant IGF-I (R&D Systems), growth factor polypeptide”, the “relative fold change of Smad7 expression” value (Smad7) is reported as ≥ 2 fold, the “relative fold change of Noggin expression” value (Noggin) is reported as “at least 6 fold” and the “RIP+ cells” value ([1]; 500 ng/ml IGF-1 added to Q-VD-OPh-treated 2-day cultures) is reported as “large increase in RIP+ cells”. For the same substance, the “total cells positive for myelin basic protein (MBP)” value ([1]; 500 ng/ml IGF-I, 4-day time point) was “Approximately 23%”, the “overall number of RIP+ cells over time” value ([1]; 500 ng/ml IGF-I, 12 h to 48 h) was “progressive increase in the overall number of RIP+ cells over time” and the “percentage of RIP+ cells” value ([1]; 500 ng/ml, 4 days, insulin-free N2 medium) was 45-55%. For the same substance, the “dose dependence of oligodendrocyte differentiation” value ([1]; 20-500 ng/ml, 4-day cultures) was “occurred in a dose-dependent manner”, the “percentage of Tuj1-positive cells across tested concentrations” value ([1]; 20-500 ng/ml, 4-day cultures) was “did not appear to change” and the “rank order of potency for oligodendrocyte differentiation” value ([1]; different concentrations (20-1000 ng/ml)) was “IGF-I>IGF-II>insulin”. For the same substance, the “GFAP+ astrocytes” value ([1]; each at 500 ng/ml, 4 days) was “few to no GFAP+ astrocytes”, the “oligodendrocyte-promoting effects in other rat lines” value ([1]; independently derived rat hippocampus progenitor cell line and clonally derived line (unpublished data)) was “confirmed” and the “percentage of RIP− cells that incorporated BrdU” value ([2]; 12-h BrdU periods up to 48 h) was “decreasing trend in the first three time periods”. For the same substance, the “RIP+ cells positive for BrdU” value ([2]; after 24 hours) was “significant increase in RIP+ cells positive for BrdU”.
